In the Kinase Knowledgebase extract (Sharma et al. 2016):

Assays:
CDK2 (human) = CDK2 (human) (UniProt P24941); assay: Enzyme Assay; details: concentration not given here
MAPK14 (human) = MAPK14 (human) (UniProt Q16539); assay: Inhibition of MAPK14 Kinase Activity; details: concentration not given here
Chain of MAPK14 (human) (Q16539 whole entry, looked up): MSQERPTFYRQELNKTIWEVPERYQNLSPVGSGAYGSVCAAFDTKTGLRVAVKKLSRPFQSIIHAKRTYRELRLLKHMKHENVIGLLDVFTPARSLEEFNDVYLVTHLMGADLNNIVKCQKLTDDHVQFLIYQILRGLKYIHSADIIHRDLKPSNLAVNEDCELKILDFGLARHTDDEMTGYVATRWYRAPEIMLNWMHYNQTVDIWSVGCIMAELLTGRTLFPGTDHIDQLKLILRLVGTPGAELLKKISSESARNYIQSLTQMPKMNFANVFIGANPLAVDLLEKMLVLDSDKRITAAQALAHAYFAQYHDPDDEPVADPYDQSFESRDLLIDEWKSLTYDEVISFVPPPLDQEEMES

What does the source list for `Cn1ccc(C2=C(c3cn(CCCO)c4ncccc34)C(=O)NC2=O)n1`?
inhibition (CDK2 (human)): 44%; inhibition (MAPK14 (human)): 8%

For `COc1ncc(C2=C(c3cn(CCCO)c4ncccc34)C(=O)NC2=O)c(OC)n1`, which inhibition (CDK2 (human)) is on record?
The inhibition was 89%.

And the inhibition (MAPK14 (human))?
The inhibition was 2%.

Which results are given for `O=C1NC(=O)C(c2cn(CCCO)c3ncccc23)=C1c1cnccn1`?
inhibition (CDK2 (human)): 30%; inhibition (MAPK14 (human)): 31%
